From US6677310B1, “Ring-expanded nucleosides and nucleotides” (Nabi, priority 1999, dated 2004) come the findings set out here.

Data set [1] has as its target T1, guanine deaminase (guanase) from rabbit liver (Oryctolagus cuniculus, UniProt G1T386).
T1 construct: from tissue; host or cells: rabbit liver
As to the kind of experiment: Guanine deaminase assay (Example 17). The format is biochemical. The conditions noted are these: Lineweaver-Burk plots. As for the experimental part: Stock solutions of the substrate, enzyme, and inhibitors were prepared using a 50 mM Tris-HCl buffer (pH 7.4). The enzyme kinetics was followed by measuring the change in optical density (decrease in absorbance) per minute of the substrate guanine. By keeping the concentration of the inhibitor constant, and by varying the substrate concentration, a set of kinetic data was obtained. Additional sets of data were generated using different concentrations of the inhibitor. The substrate concentration in each assay ranged 6-20 μM; a total of six different concentrations were employed. The inhibitor concentration used in each assay was 30 or 40 μM. The amount of enzyme used in each assay was 0.0076 unit. The Ki for inhibition assays was computed from Lineweaver-Burk plots. The Lineweaver-Burk plot (1/V vs 1/[S]), as well as the linear regression analysis of kinetic data, were performed using the program Quattro Pro (version 6.01) for Windows.™.

In data set [2] the target is T2, adenosine deaminase from calf intestinal mucosa (Bos taurus, UniProt P56658).
T2 construct: against adenosine deaminase from calf intestinal mucosa; from tissue; host or cells: calf intestinal mucosa
As to the kind of experiment: Adenosine deaminase assay (Example 17). The class given is biochemical. As to conditions: Lineweaver-Burk plots; with and without preincubation. As for the experimental part: Inhibition of adenosine deaminase (ADA) by Compound 17-1 and Compound 17-2 (see FIG. 13 for chemical structures; note that structure 1 FIG. 13 is the same as that in figure except that it is written in an anti-conformation in the former) was investigated in vitro against adenosine deaminase from calf intestinal mucosa in a 50 mM phosphate buffer (pH=7.4) at 25° C., by spectro-photometrically monitoring the rate of hydrolysis of substrate adenosine at 265 nm. Stock solutions of the substrate, enzyme, and inhibitors were prepared using a 50 mM phosphate buffer (pH 7.4). The enzyme kinetics was followed by measuring the change in optical density (decrease in absorbance) per minute of the substrate adenosine. By keeping the concentration of the inhibitor constant, and by varying the substrate concentration, a set of kinetic data was obtained. Additional sets of data were generated using different concentrations of the inhibitor. […]
(a) pre-incubation of the enzyme with the inhibitor; here the enzyme (ADA 10 μL) and inhibitor were preincubated for 10 min in a calculated amount of phosphate buffer (50 mM, pH 7.5 ) at 25° C. and the reaction was initiated by the addition of substrate, adenosine, and (b) without preincubation; here the reaction was started by addition of ADA (10 μL) to a mixture of adenosine and inhibitor in the phosphate buffer at 25° C. […]

In a further data set the test system is P3HR-1 strain of EBV. Description: Viral capsid antigen (VCA) / EBV immunofluorescence assay in Daudi cells. The format is cell-based, Epstein-Barr virus. As to conditions: for SI (Selectivity Index), Daudi Cells: IC50 (Daudi cells) divided by anti-EBV EC50; for SI (Selectivity Index), Neutral Red Uptake: IC50 (neutral red, stationary HFF) divided by anti-EBV EC50; for SI (Selectivity Index), HFF Cells: IC50 (rapidly growing HFF) divided by anti-EBV EC50; for EC50: human gammaherpesvirus 4, Daudi cells, read-out: Antiviral Activity (EC50), anti-EBV. Here is the method: After virus adsorption, the cells were washed and pelleted, and the supernatant was discarded. The drugs to be tested were serially diluted in RPMI-1640 and added to the appropriate tubes. The cultures were incubated for 2 days in complete medium to allow viral gene expression. Following the 48 h incubation period, a number of cells of each sample were counted and washed in phosphate-buffered saline (PBS), and slides were prepared. The slides were dried overnight. The dried cells were fixed with acetone. A monoclonal antibody to viral capsid antigen (VCA) was then added to the cells, incubated for 30 min at 37° C., and washed in PBS. This was followed by a fluorescein-conjugated goat anti-mouse IgG antibody. The cells were counterstained with. Evans Blue. A total of 500 negative and fluorescence positive cells were counted. The total number of VCA positive cells in the cultures was calculated and EC50 values determined using Microsoft Excel Software.
(§1) Data Analysis: Dose-response relationships were constructed by linearly regressing the percent inhibition of parameters derived in the preceding sections against log drug concentrations. Fifty-percent inhibitory (IC50) concentrations were calculated from the regression lines.

The nature of data set [3]: Neutral red uptake assay, stationary HFF cells. The format is cell-based. The conditions noted are these: human, read-out: Cytotoxicity (IC50), Neutral Red Uptake. As for the experimental part:
(B) Neutral Red Uptake Assay: Twenty-four hours prior to assay, HFF cells were plated into 96-well plates at a concentration of 2.5×10^4 cells/well. After 24 h, the media was aspirated, and […] of media containing drug was added to the first row of wells and then diluted serially 1:5 using the automated Cetus Liquid Handling System. The plates were then incubated in a Co2 incubator at 37° C. for 7 days. At this time the media/drug was removed, cells were washed, 200 μL/well of 0.01% neutral red in PBS was added, and the mixture was incubated for 1 h. The dye was removed, and the cells were washed using a Nunc Plate Washer. After the wash was removed, […] of 50% ethanol/1% aqueous acetic acid was added. The plates were placed on a rotating shaker for 15 min, and the optical densities were then read at 540 nm using a plate reader.
as §1

Data set [4] in a line: Cell proliferation assay, rapidly growing HFF cells. The class given is cell-based. As to conditions: human, rapidly growing human foreskin fibroblast (HFF) cells; for IC50 at 72 h: rapidly growing HFF cells, read-out: Cytotoxicity (IC50), HFF Cells. Here is the method:
(§2) The toxicity of Compounds 14-1 and 14-2 was also measured in rapidly growing human foreskin fibroblast (HFF) cells and Daudi cells by cell proliferation assay (National Institute of Allergy and Infectious Diseases (NIAID), NIH, Bethesda, Md.). According to the assay method, the appropriate cells were seeded in six-well plates in MEM containing 10% FBS. Twenty four hours later, the cells were treated with several dilutions of the test compounds covering a range of 0.03-100 μg/ml. The plates were incubated in a CO2 incubator at 37° C. for 72h. The cells were washed after removing the media and subsequently released from the plate wells by the addition of 1 ml of 0.25% trypsin. The contents in the wells were mixed, diluted with Isotone III and counted using a Coulter counter. The CC50 values (concentration of compound giving 50% inhibition of cell proliferation) were calculated by linear regression analysis. Toxicity of Compound 14-1 was also evaluated in bone marrow precursor cells by previously published procedure (Sommadossi, J.-P., et al., Biochem. Pharmacol., 44:1921-1925, 1992).
(§3) (A) Cell Proliferation Assay: Twenty-four hours prior to assay, cells (HFF or Daudi) were seeded in six-well plates at a concentration of 2.5×10^4 cells per well in MEM containing 10% FBS. On the day of the assay, drugs were diluted serially in MEM containing 10% FBS at increments of 1:5 covering a range from […]. For drugs that had to be solubilized in DMSO, control wells receive MEM containing 10% DMSO. The media from the wells was then aspirated, and 2 mL of each drug concentration was added to each well. The cells were incubated in a CO2 incubator at 37° C. for 72 h. At the end of this time, the media-drug solution was removed, and the cells were washed. Trypsin-EDTA (0.25%, 1 mL) was added to each well and incubated until the cells started to come off the plate. The cell-media mixture was then pipeted up and down vigorously to break up the cell suspension and 0.2 mL of the mixture added to 9.8 mL of Isoton III and the cells were counted using a Coulter Counter. Each sample was counted three times with two replicate wells per sample. The IC50 values were calculated using a computer program.

Data set [5] is described as follows: Cell proliferation assay, rapidly growing Daudi cells. The class given is cell-based. The conditions noted are these: human; for IC50 at 72 h: rapidly growing Daudi cells, read-out: Cytotoxicity (IC50), Daudi Cells. Here is the method: as §2, §3
The target of data set [6] is T3, bacteriophage T7 RNA polymerase (Escherichia phage T7, UniProt P00573).
T3 construct: purchased Promega P2075
Description: Transcription catalyzed by T7 RNA polymerase. The format is biochemical. Here is the method:
To show whether the “fat” nucleotide Compound 15-2 (FNTP) is incorporated into RNA during transcription, experiments were performed using bacteriophage T7 RNA polymerase (RNAP) and a synthetic 42-mer DNA template shown below that is annealed to a 17-nucleotide promoter specific for T7 RNAP. This promoter-template enables the synthesis of 25-mer RNA, and the purine analogue may be incorporated in positions +1, +11, +13, +15, +21, +22, and +23.
Transcription reaction conditions were optimized with the use of ^32P CTP for labeling RNA transcripts. Polyacrylimide gel electrophoresis of the transcription products obtained from the 42-mer template, using 1 mM each of four natural NTPs, reveled a 25-mer RNA as the major product, together with shorter and longer labeled transcripts (FIG. 9, lane 1). The additional bands observed are consistent with the known ability of T7 RNA polymerase to add non-coded residues at the 3′-end of transcripts. (Milligan, J. F., et al., Nuc. Acids Res., 15, 8783-8798, 1987) With the use of 1 mM nucleotide Compound 15-2 (FNTP), the yield of transcription was reduced (lane 2).
With the use of a synthetic 37-mer DNA template, annealed to a 17-nucleotide promoter for T7 RNAP as shown below, a 20 nucleotide-long transcript RNA was obtained when the reaction mixture contained all four NTPs in appropriate concentrations, along with many shorter “abortive” fragments. (Milligan, J. F., et al., Nuc. Acids Res., 15, 8783-8798, 1987). For the reaction with modified nucleotide, typically
the concentration of the appropriate natural nucleotide was reduced. […] (Milligan, J. F., et al., Methods in Enzymol., 180, 51-63, 1989.) In the present experiments, the synthesis of RNA was compared under standard conditions (using 4 NTPs in 0.2 mM concentration each) with the synthesis of RNA by using an additional “fat” nucleoside triphosphate Compound 15-2 (FNTP) in varying (0.05-10 mM) concentrations. The reaction mixtures were incubated at 37° C. for 2 hours, and the products were denatured in a buffer containing urea. The products were separated by 20% polyacrylamide-urea gel electrophoresis and visualized by autoradiography.
Transcription samples (total volume 10 μL contained: 40 mM Tris-HCl pH 8.1 with 6 mM MgCl2, 5 mM dithiothreitol (DTT), 1 mM spermidine, 0.01% Triton-X 100, 50 μg/mL bovine serum albumin, 250 nM synthetic DNA template with a promotor for T7 RNAP, 4 units of T7 RNA polymerase, and 0.2 mM ribonucleoside triphosphates. A single α^32P-labeled NTP was added for labeling (typicallly 1 μL of 10 mCi/mL ). Inhibition assays were monitored with varying concentrations (0.05-10 mM) of nucleotide Compound 15-2. Polyacrylamide gel (20%) electrophoresis was performed on slab gels (18 cm×16 cm, or 35 cm×44 cm) containing 8M urea. […]

Values after ≈ are worked out from the molar mass of the structure shown. “Also recorded” adds a separate entry of the source.

By EC50 is commonly meant the concentration that produces a half-maximal response. Broadly, the IC50 is the concentration that inhibits the measured activity by half. As usually defined, the CC50 is the concentration at which the toxic effect on the cells reaches its halfway point. A higher CC50 goes with better tolerance by the cells. For orientation: melting point means the temperature, or range, at which the solid turns liquid.

T2 sequence (P56658 whole entry): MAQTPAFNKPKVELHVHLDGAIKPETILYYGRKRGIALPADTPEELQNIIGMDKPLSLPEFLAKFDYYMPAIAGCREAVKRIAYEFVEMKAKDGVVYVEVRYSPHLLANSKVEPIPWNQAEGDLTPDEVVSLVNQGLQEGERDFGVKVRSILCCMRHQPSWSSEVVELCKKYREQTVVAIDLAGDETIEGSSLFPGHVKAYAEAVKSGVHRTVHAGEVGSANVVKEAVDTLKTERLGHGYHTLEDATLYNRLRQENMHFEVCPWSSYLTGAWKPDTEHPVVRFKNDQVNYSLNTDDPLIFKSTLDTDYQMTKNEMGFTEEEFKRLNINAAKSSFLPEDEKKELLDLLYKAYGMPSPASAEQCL
T3 sequence (P00573 whole entry): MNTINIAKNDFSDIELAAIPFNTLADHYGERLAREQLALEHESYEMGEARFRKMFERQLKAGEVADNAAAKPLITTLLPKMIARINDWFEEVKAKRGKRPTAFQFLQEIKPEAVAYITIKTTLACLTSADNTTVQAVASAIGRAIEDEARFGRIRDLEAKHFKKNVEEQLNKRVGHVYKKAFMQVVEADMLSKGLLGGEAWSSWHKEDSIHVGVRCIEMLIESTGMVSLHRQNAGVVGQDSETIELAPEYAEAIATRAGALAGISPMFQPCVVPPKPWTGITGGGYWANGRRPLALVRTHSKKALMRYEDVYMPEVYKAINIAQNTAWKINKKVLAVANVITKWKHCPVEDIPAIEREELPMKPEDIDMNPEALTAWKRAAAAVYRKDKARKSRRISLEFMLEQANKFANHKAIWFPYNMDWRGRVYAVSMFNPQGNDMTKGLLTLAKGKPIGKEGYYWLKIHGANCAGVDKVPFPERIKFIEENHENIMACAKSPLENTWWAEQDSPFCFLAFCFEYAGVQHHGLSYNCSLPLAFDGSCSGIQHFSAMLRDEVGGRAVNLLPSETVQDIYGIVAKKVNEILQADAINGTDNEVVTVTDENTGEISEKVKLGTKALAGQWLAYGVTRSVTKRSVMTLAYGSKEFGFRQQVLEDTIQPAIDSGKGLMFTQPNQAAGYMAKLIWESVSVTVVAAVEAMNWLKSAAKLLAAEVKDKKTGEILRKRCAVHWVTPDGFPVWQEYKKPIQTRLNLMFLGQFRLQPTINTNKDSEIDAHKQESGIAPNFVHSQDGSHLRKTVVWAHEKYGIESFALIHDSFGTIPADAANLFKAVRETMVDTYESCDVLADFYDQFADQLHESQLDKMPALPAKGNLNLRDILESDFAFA
T1 sequence (G1T386 1-454): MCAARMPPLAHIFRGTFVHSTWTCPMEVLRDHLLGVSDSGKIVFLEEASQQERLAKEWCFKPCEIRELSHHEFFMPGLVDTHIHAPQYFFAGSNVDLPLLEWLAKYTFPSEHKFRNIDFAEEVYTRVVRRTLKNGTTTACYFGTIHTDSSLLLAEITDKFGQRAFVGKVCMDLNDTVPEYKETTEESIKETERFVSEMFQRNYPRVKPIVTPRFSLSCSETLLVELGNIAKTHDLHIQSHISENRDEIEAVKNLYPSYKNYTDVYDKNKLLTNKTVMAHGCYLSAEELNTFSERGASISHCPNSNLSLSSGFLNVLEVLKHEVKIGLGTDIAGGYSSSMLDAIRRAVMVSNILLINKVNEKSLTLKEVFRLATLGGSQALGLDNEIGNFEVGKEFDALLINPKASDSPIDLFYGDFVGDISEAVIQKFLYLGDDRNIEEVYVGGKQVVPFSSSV

In the case of `N=c1nc(N)c2ncn(COCCO)c2c(N)n1` [Compound 17-2], in data set [1], the “inhibition of guanine deaminase (guanase), mode” value is reported as “competitive inhibitor”. Besides, the “mode of inhibition of adenosine deaminase” value in data set [2] is “competitive inhibitor; also recorded: reversible inhibitor”.
Consider `Nc1nc2c(ncn2COCCO)c(=O)[nH]1` [Aciclovir, reference compound], for which, in the data set on P3HR-1 strain of EBV, the “SI (Selectivity Index), Daudi Cells” value was greater than 62; the “SI (Selectivity Index), Neutral Red Uptake” value is reported as greater than 125; the “SI (Selectivity Index), HFF Cells” value was greater than 125; the half-maximal effective concentration (EC50) came to 0.8 µg/mL (≈ 3.55 µM). The half-maximal inhibitory concentration (IC50) at 7 days in data set [3] is greater than 100 µg/mL. In data set [4] (Rapidly growing HFF cells), the CC50 at 72 h is greater than 100 µg/mL. For the same molecule, the IC50 at 72 h in data set [4] was greater than 100 µg/mL. The molecule further had a CC50 at 72 h in data set [5] (Rapidly growing Daudi cells) greater than 50 µg/mL. For the same molecule, the IC50 at 72 h in data set [5] is greater than 50 µg/mL.
In turn, `O=C1c2ncn(Cc3ccccc3)c2N(Cc2ccccc2)C(=O)CN1Cc1ccccc1` [Compound 18-1, 3,4,7-Tribenzyl-4,5,7,8-tetrahydro-6H-imidazo[4,5-e][1,4]diazepine-5,8-dione] yielded a melting point of 170 to 172 °C. In addition, in the data set on P3HR-1 strain of EBV, the “SI (Selectivity Index), Daudi Cells” value is greater than 12; the “SI (Selectivity Index), Neutral Red Uptake” value is greater than 24; the “SI (Selectivity Index), HFF Cells” value is on record as greater than 24; the concentration for a half-maximal effect (EC50) is 4.1 µg/mL (≈ 9.39 µM). In data set [3], the IC50 at 7 days was greater than 100 µg/mL. Further, in data set [4], the concentration for half-maximal inhibition (IC50) at 72 h was greater than 100 µg/mL. Further, the IC50 at 72 h in data set [5] is greater than 50 µg/mL.
Molecule `O=C1NCC(=O)N(Cc2ccccc2)c2c1nc(Br)n2Cc1ccccc1` [Compound 18-2, 3,4-Dibenzyl-2-bromo-4,5,7,8-tetrahydro-6H-imidazo[4,5-e][1,4]diazepine-5,8-dione] displayed a melting point of 239 to 241 °C. In the data set with P3HR-1 strain of EBV, the “SI (Selectivity Index), Daudi Cells” value is greater than 6; the “SI (Selectivity Index), Neutral Red Uptake” value is greater than 12; the “SI (Selectivity Index), HFF Cells” value is on record as greater than 12; the concentration for a half-maximal effect (EC50) worked out at 8.3 µg/mL (≈ 19.5 µM). The concentration for half-maximal inhibition (IC50) at 7 days in data set [3] was greater than 100 µg/mL. Also, in data set [4], the IC50 at 72 h was greater than 100 µg/mL. In data set [5], the IC50 at 72 h was greater than 50 µg/mL.
In the case of `N=c1nc(N)nc(N)c2ncn([C@@H]3O[C@H](COP(=O)(O)OP(=O)(O)OP(=O)(O)O)[C@@H](O)[C@H]3O)c12` [Compound 15-2, 5′-triphosphate derivative of 4,6-diamino-8-imino-8H-1-β-D-ribofuranosylimidazo[4,5-e][1,3]diazepine], the “incorporation into RNA during transcription (substrate for T7 polymerase)” value in data set [6] (42-mer DNA template) was “not a substrate for T7 polymerase”. Moreover, the “inhibition of T7 RNA polymerase-catalyzed transcription” value in data set [6] (42-mer and 37-mer DNA templates, 0.05-10 mM) was “inhibitor of T7 polymerase”.
